Earlier results, collected in patent publication US9156886B2, “Cyclosporin analogues for preventing or treating hepatitis C infection” (priority 2009, dated 2015).

Experiments:
hepatitis C virus = details: published results, Antiviral Research 65(3):A41 (2005)
cyclophilin A = cyclophilin A (Homo sapiens, UniProt P62937)
cyclophilin A, sequence (P62937 whole entry, species assumed): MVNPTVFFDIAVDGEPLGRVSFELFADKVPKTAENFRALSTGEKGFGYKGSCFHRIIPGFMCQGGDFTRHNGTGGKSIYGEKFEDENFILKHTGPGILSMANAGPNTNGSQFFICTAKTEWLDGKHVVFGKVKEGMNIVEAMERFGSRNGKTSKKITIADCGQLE

C/C=C/C[C@@H](C)[C@@H](O)[C@H]1C(=O)N[C@@H](CC)C(=O)N(C)[C@H](C)C(=O)N(CC)[C@@H](C(C)C)C(=O)N[C@@H](C(C)C)C(=O)N(C)[C@@H](CC(C)C)C(=O)N[C@@H](C)C(=O)N[C@H](C)C(=O)N(C)[C@@H](CC(C)C)C(=O)N(C)[C@@H](CC(C)C)C(=O)N(C)[C@@H](C(C)C)C(=O)N1C [DEBIO-025]
inhibition of hepatitis C virus replication (hepatitis C virus): potent and selective inhibition | binding affinity for cyclophilin A (cyclophilin A): potent binding affinity
